What was measured:
[1] = system: Magnaporthe grisea (Pyricularia oryzae); assay: microbe, parasite or virus in culture; assay type: cell-based; conditions: read-out: control of Magnaporthe grisea
Fusarium culmorum [2] = assay: whole plant or invertebrate; assay type: in vivo, Fusarium culmorum on wheat spikelets cv. Monsun; conditions: in Triticum aestivum, read-out: control of Fusarium culmorum
Sclerotinia sclerotiorum = Sclerotinia sclerotiorum / liquid culture (cottony rot); assay type: cell-based; conditions: growth inhibition photometrically 3-4 days after application, vs untreated control
Procedure: Sclerotinia sclerotiorum/Liquid Culture (Cottony Rot)
Mycelia fragments of a newly grown liquid culture of the fungus are directly mixed into nutrient broth (Vogels broth). After placing a (DMSO) solution of test compound into a microtiter plate (96-well format) the nutrient broth containing the fungal material is added. The test plates are incubated at 24° C. and the inhibition of growth is determined photometrically 3-4 days after application.

[3] = system: Magnaporthe grisea (Pyricularia oryzae); assay: whole plant or invertebrate; assay type: in vivo, Magnaporthe grisea on rice leaf segments cv. Ballila; conditions: foliar, read-out: control of Magnaporthe grisea
[4] = system: Glomerella lagenarium (Colletotrichum lagenarium); assay: Glomerella lagenarium (Colletotrichum lagenarium) / liquid culture (anthracnose); assay type: cell-based; conditions: Colletotrichum orbiculare, growth inhibition photometrically 3-4 days after application, vs untreated control
Procedure: (§1) Conidia of the fungus from cryogenic storage are directly mixed into nutrient broth (PDB potato dextrose broth). After placing a (DMSO) solution of test compound into a microtiter plate (96-well format), the nutrient broth containing the fungal spores is added. The test plates are incubated at 24° C. and the inhibition of growth is measured photometrically 3-4 days after application.

[5] = system: Botryotinia fuckeliana (Botrytis cinerea); assay: Botryotinia fuckeliana (Botrytis cinerea) / liquid culture (gray mould); assay type: cell-based; conditions: growth inhibition photometrically 3-4 days after application, vs untreated control
Procedure: Botryotinia fuckeliana (Botrytis cinerea)/Liquid Culture (Gray Mould)
as §1, with “(Vogels” for “(PDB potato dextrose”, “determined” for “measured”

Fusarium culmorum [6] = assay: microbe, parasite or virus in culture; assay type: cell-based; conditions: read-out: control of Fusarium culmorum

## C=C(Cl)CC(Cc1ccccc1)C(=O)Nc1cnc2c(F)cccc2c1C (centres unmarked) [Compound E-5, 2-benzyl-4-chloro-N-(8-fluoro-4-methyl-3-quinolyl)pent-4-enamide]
[1]
  inhibition of growth at 200 ppm: ≥ 80%
Fusarium culmorum [2]
  pest or weed control at 200 ppm: ≥ 80%
other
  melting point: 53 to 58 °C
Sclerotinia sclerotiorum
  inhibition of growth at 20 ppm: ≥ 80%

## CC(C)C[C@](C)(Cc1ccccc1)C(=O)Nc1cnc2c(F)cccc2c1 [Compound F-19, (2R)-2-benzyl-N-(8-fluoro-3-quinolyl)-2,4-dimethyl-pentanamide]
[1]
  inhibition of growth at 200 ppm: ≥ 80%
Fusarium culmorum [2]
  pest or weed control at 200 ppm: ≥ 80%

## C#CCC(C)(Cc1ccccc1)C(=O)Nc1cc2cccc(F)c2nc1C (centres unmarked) [Compound E-2, 2-benzyl-N-(8-fluoro-2-methyl-3-quinolyl)-2-methyl-pent-4-ynamide]
[1]
  inhibition of growth at 200 ppm: ≥ 80%
[3]
  pest or weed control at 200 ppm: ≥ 80%
Fusarium culmorum [2]
  pest or weed control at 200 ppm: ≥ 80%

## C#CCC(C)(Cc1ccccc1)C(=O)Nc1cnc2c(F)cccc2c1C (centres unmarked) [Compound E-3, 2-benzyl-N-(8-fluoro-4-methyl-3-quinolyl)-2-methyl-pent-4-ynamide]
[1]
  inhibition of growth at 200 ppm: ≥ 80%

## C=C(Cl)CC(C)(Cc1ccccc1)C(=O)Nc1cc2cccc(F)c2nc1C (centres unmarked) [Compound E-21, 2-benzyl-4-chloro-N-(8-fluoro-2-methyl-3-quinolyl)-2-methyl-pent-4-enamide]
[3]
  pest or weed control at 200 ppm: ≥ 80%
Fusarium culmorum [2]
  pest or weed control at 200 ppm: ≥ 80%
other
  melting point: 121 to 123 °C

## C=C(C)C[C@@](C)(Cc1ccccc1)C(=O)Nc1cnc2c(F)cccc2c1 [Compound F-21, (2S)-2-benzyl-N-(8-fluoro-3-quinolyl)-2,4-dimethyl-pent-4-enamide]
[1]
  inhibition of growth at 200 ppm: ≥ 80%
[3]
  pest or weed control at 200 ppm: ≥ 80%
Fusarium culmorum [2]
  pest or weed control at 200 ppm: ≥ 80%
Sclerotinia sclerotiorum
  inhibition of growth at 20 ppm: ≥ 80%

## C#CCC(Cc1ccccc1)C(=O)Nc1cnc2c(F)cccc2c1C (centres unmarked) [Compound E-95]
[1]
  inhibition of growth at 200 ppm: ≥ 80%

## C=C(Cl)C[C@@](C)(Cc1ccccc1)C(=O)Nc1cc2cccc(F)c2nc1C [Compound F-43, (2R)-2-benzyl-4-chloro-N-(8-fluoro-2-methyl-3-quinolyl)-2-methyl-pent-4-enamide]
[4]
  inhibition of growth at 200 ppm: ≥ 80%
[3]
  pest or weed control at 200 ppm: ≥ 80%
Fusarium culmorum [2]
  pest or weed control at 200 ppm: ≥ 80%
[5]
  inhibition of growth at 200 ppm: ≥ 80%

## Cc1c(NC(=O)C(Cc2ccccc2)CC(F)(F)F)cnc2c(F)cccc12 (centres unmarked) [Compound E-45, 2-benzyl-4,4,4-trifluoro-N-(8-fluoro-4-methyl-3-quinolyl)-butanamide]
[3]
  pest or weed control at 200 ppm: ≥ 80%
Fusarium culmorum [2]
  pest or weed control at 200 ppm: ≥ 80%
other
  melting point: 165 to 167 °C

## C=C(C)C[C@](C)(Cc1ccccc1)C(=O)Nc1cnc2c(F)cccc2c1 [Compound F-22, (2R)-2-benzyl-N-(8-fluoro-3-quinolyl)-2,4-dimethyl-pent-4-enamide]
[1]
  inhibition of growth at 200 ppm: ≥ 80%

## C=C(Cl)CC(C)(Cc1ccccc1)C(=O)Nc1cnc2c(F)cccc2c1C (centres unmarked) [Compound E-20, 2-benzyl-4-chloro-N-(8-fluoro-4-methyl-3-quinolyl)-2-methyl-pent-4-enamide]
[3]
  pest or weed control at 200 ppm: ≥ 80%
Fusarium culmorum [2]
  pest or weed control at 200 ppm: ≥ 80%
other
  melting point: 124 to 126 °C

## CC(C)CC(C)(Cc1ccccc1)C(=O)Nc1cnc2ccccc2c1 (centres unmarked) [Compound E-85, 2-benzyl-2,4-dimethyl-N-(3-quinolyl)pentanamide]
[1]
  inhibition of growth at 200 ppm: ≥ 80%
other
  melting point: 147 to 148 °C

## Cc1c(NC(=O)[C@H](Cc2ccccc2)CC2(C)CC2)cnc2c(F)cccc12 [Compound F-39, (2S)-2-benzyl-N-(8-fluoro-4-methyl-3-quinolyl)-3-(1-methylcyclopropyl)propanamide]
Fusarium culmorum [6]
  inhibition of growth at 200 ppm: ≥ 80%
[1]
  inhibition of growth at 200 ppm: ≥ 80%
[4]
  inhibition of growth at 200 ppm: ≥ 80%
[5]
  inhibition of growth at 200 ppm: ≥ 80%

## C=C(C)CC(Cc1ccccc1)C(=O)Nc1cnc2c(F)cccc2c1 (centres unmarked) [Compound E-94, 2-benzyl-N-(8-fluoro-3-quinolyl)-4-methyl-pent-4-enamide]
[1]
  inhibition of growth at 200 ppm: ≥ 80%
other
  melting point: 170 to 172 °C

## Cc1c(NC(=O)C(C)(Cc2ccccc2)CC(C)C)cnc2c(F)cccc12 (centres unmarked) [Compound E-84, 2-benzyl-N-(8-fluoro-4-methyl-3-quinolyl)-2,4-dimethyl-pentanamide]
[1]
  inhibition of growth at 200 ppm: ≥ 80%
Fusarium culmorum [2]
  pest or weed control at 200 ppm: ≥ 80%
other
  melting point: 73 to 79 °C
Sclerotinia sclerotiorum
  inhibition of growth at 20 ppm: ≥ 80%

## C=CCC(C)(Cc1ccccc1)C(=O)Nc1cnc2c(F)cccc2c1 (centres unmarked) [Compound E-78, 2-benzyl-N-(8-fluoro-3-quinolyl)-2-methyl-pent-4-enamide]
[1]
  inhibition of growth at 200 ppm: ≥ 80%
Fusarium culmorum [2]
  pest or weed control at 200 ppm: ≥ 80%
other
  melting point: 146 to 149 °C

## Cc1nc2c(F)cccc2cc1NC(=O)C(C)(Cc1ccccc1)CC(C)C (centres unmarked) [Compound E-86, 2-benzyl-N-(8-fluoro-2-methyl-3-quinolyl)-2,4-dimethyl-pentanamide]
[1]
  inhibition of growth at 200 ppm: ≥ 80%
Fusarium culmorum [2]
  pest or weed control at 200 ppm: ≥ 80%
Sclerotinia sclerotiorum
  inhibition of growth at 20 ppm: ≥ 80%

## C#CCC(C)(Cc1ccccc1)C(=O)Nc1cnc2c(F)cccc2c1 (centres unmarked) [Compound E-26, 2-benzyl-N-(8-fluoro-3-quinolyl)-2-methyl-pent-4-ynamide]
[3]
  pest or weed control at 200 ppm: ≥ 80%
other
  melting point: 189 to 191 °C

## Cc1nc2c(F)cccc2cc1NC(=O)[C@@](C)(Cc1cccc(F)c1)CC(F)(F)F [Compound F-31, (2S)-4,4,4-trifluoro-N-(8-fluoro-2-methyl-3-quinolyl)-2-[(3-fluorophenyl)methyl]-2-methyl-butanamide]
[4]
  inhibition of growth at 200 ppm: ≥ 80%
[3]
  pest or weed control at 200 ppm: ≥ 80%
Fusarium culmorum [2]
  pest or weed control at 200 ppm: ≥ 80%
[5]
  inhibition of growth at 200 ppm: ≥ 80%
Sclerotinia sclerotiorum
  inhibition of growth at 20 ppm: ≥ 80%

## Cc1c(NC(=O)C(C)(Cc2ccccc2)CC(F)(F)F)cnc2c(F)cccc12 (centres unmarked) [Compound E-50, 2-benzyl-4,4,4-trifluoro-N-(8-fluoro-4-methyl-3-quinolyl)-2-methyl-butanamide]
[3]
  pest or weed control at 200 ppm: ≥ 80%
Fusarium culmorum [2]
  pest or weed control at 200 ppm: ≥ 80%
other
  melting point: 106 to 109 °C

## CC(C)C[C@@](C)(Cc1ccccc1)C(=O)Nc1cnc2c(F)cccc2c1 [Compound F-20, (2S)-2-benzyl-N-(8-fluoro-3-quinolyl)-2,4-dimethyl-pentanamide]
[1]
  inhibition of growth at 200 ppm: ≥ 80%
Fusarium culmorum [2]
  pest or weed control at 200 ppm: ≥ 80%
Sclerotinia sclerotiorum
  inhibition of growth at 20 ppm: ≥ 80%

## Cc1c(NC(=O)[C@@](C)(Cc2ccccc2)CC(C)C)cnc2c(F)cccc12 [Compound F-4, (2R)-2-benzyl-N-(8-fluoro-4-methyl-3-quinolyl)-2,4-dimethyl-pentanamide]
[1]
  inhibition of growth at 200 ppm: ≥ 80%
[3]
  pest or weed control at 200 ppm: ≥ 80%
Fusarium culmorum [2]
  pest or weed control at 200 ppm: ≥ 80%
Sclerotinia sclerotiorum
  inhibition of growth at 20 ppm: ≥ 80%

## Cc1nc2c(F)cccc2cc1NC(=O)[C@H](Cc1ccccc1)CC(C)(C)C [Compound F-33, (2S)-2-benzyl-N-(8-fluoro-2-methyl-3-quinolyl)-4,4-dimethyl-pentanamide]
Fusarium culmorum [6]
  inhibition of growth at 200 ppm: ≥ 80%
[1]
  inhibition of growth at 200 ppm: ≥ 80%
[4]
  inhibition of growth at 200 ppm: ≥ 80%
[5]
  inhibition of growth at 200 ppm: ≥ 80%

## C=C(Cl)CC(Cc1ccccc1)C(=O)Nc1cnc2c(F)cccc2c1 (centres unmarked) [Compound E-6, 2-benzyl-4-chloro-N-(8-fluoro-3-quinolyl)-pent-4-enamide]
[1]
  inhibition of growth at 200 ppm: ≥ 80%
[3]
  pest or weed control at 200 ppm: ≥ 80%
other
  melting point: 166 to 168 °C

Reference: US20220030867A1 (priority 2018, published 2022)
